Measurements taken from article PMC10819809 (Microorganisms, 2024).
≈ marks a conversion by molar mass, not a printed value. Square brackets hold non-standard residues; d marks the D form. Peptide text beside a SMILES is read from it.

These molecules were tested on multi-drug resistant (MDR) strain (MDR-TB, clinical isolate). Settings: microdilution broth, 96-well, 2 × 10^5 CFU/mL, 37 °C 14 days, resazurin 48 h; conducted twice with three technical replicates each.

Structure (SMILES)	MIC in µg/mL, MDR-TB [µg/mL]
CC[C@@H](C)[C@@H](NC(=O)[C@@H](CCCCN)NC(=O)[C@H](N)Cc1c[nH]c2ccccc12)C(=O)N[C@@H](C(=O)N[C@H](Cc1ccccc1)C(=O)N[C@H](Cc1c[nH]c2ccccc12)C(=O)N[C@H](Cc1c[nH]c2ccccc12)C(=O)N[C@H](CCCNC(=N)N)C(=O)N[C@H](CCCNC(=N)N)C(N)=O)C(C)C [peptide 14D] (H-[dW][dK][dI][dV][dF][dW][dW][dR][dR]-NH2)	>50
CC[C@@H](C)[C@@H](NC(=O)[C@@H](CCCCN)NC(=O)[C@H](N)Cc1c[nH]c2ccccc12)C(=O)N[C@H](CO)C(=O)N[C@H](Cc1ccccc1)C(=O)N[C@H](Cc1c[nH]c2ccccc12)C(=O)N[C@H](Cc1c[nH]c2ccccc12)C(=O)N[C@H](CCCNC(=N)N)C(=O)N[C@H](CCCNC(=N)N)C(N)=O [wkisfwwrr] (H-[dW][dK][dI][dS][dF][dW][dW][dR][dR]-NH2; N-terminus assumed)	20 (≈ 14.7 µM)
CC[C@@H](C)[C@@H](NC(=O)[C@@H](CCCCN)NC(=O)[C@H](N)Cc1c[nH]c2ccccc12)C(=O)N[C@@H](C(=O)N[C@H](Cc1ccccc1)C(=O)NCC(=O)N[C@H](Cc1c[nH]c2ccccc12)C(=O)N[C@H](CCCNC(=N)N)C(=O)N[C@H](CCCNC(=N)N)C(N)=O)C(C)C [wkivfGwrr] (H-[dW][dK][dI][dV][dF]G[dW][dR][dR]-NH2; N-terminus assumed)	20 (≈ 16 µM)
CC[C@@H](C)[C@@H](NC(=O)[C@@H](CCCCN)NC(=O)[C@H](N)Cc1c[nH]c2ccccc12)C(=O)N[C@@H](C(=O)N[C@H](Cc1ccccc1)C(=O)N[C@H](CC(=O)O)C(=O)N[C@H](Cc1c[nH]c2ccccc12)C(=O)N[C@H](CCCNC(=N)N)C(=O)N[C@H](CCCNC(=N)N)C(N)=O)C(C)C [wkivfdwrr] (H-[dW][dK][dI][dV][dF][dD][dW][dR][dR]-NH2)	20 (≈ 15.3 µM)
CC[C@@H](C)[C@@H](NC(=O)[C@@H](CCCCN)NC(=O)[C@H](N)Cc1c[nH]c2ccccc12)C(=O)N[C@@H](C(=O)N[C@H](Cc1ccccc1)C(=O)N[C@H](CC(N)=O)C(=O)N[C@H](Cc1c[nH]c2ccccc12)C(=O)N[C@H](CCCNC(=N)N)C(=O)N[C@H](CCCNC(=N)N)C(N)=O)C(C)C [wkivfnwrr] (H-[dW][dK][dI][dV][dF][dN][dW][dR][dR]-NH2; N-terminus assumed)	20 (≈ 15.3 µM)
